Laboratory results taken from ChEMBL document CHEMBL1154091, “Reaction of the antitumor antibiotic olivomycin I with aryl diazonium salts. Synthesis, cytotoxic and antiretroviral potency of 5-aryldiazenyl-6-O-deglycosyl derivatives of olivomycin I” (Bioorg Med Chem, 2009).
pEC50, pIC50: −log10 of the molar value. The source made the active and inactive calls. The calls are words filed in the database; no cut-off is given here.

Legend:
L1210 = experiment: Antiproliferative against mouse L1210 cells after 48 hrs; type: functional, cell-based; settings: L1210, 48 h
[1] = Antiproliferative against human Molt4/C8 cells after 72 hrs; type: functional, cell-based; settings: MOLT-4, 72 h
CCRF-CEM = experiment: Antiproliferative against human CEM cells after 72 hrs; type: cell-based
[2] = target: T1, DNA topoisomerase 1 (Homo sapiens) (UniProt P11387); experiment: Inhibition of DNA topoisomerase 1 assessed as inhibition of unwinding of supercoiled pBR322 DNA at 20 uM by agarose gel electrophoresis
T1 sequence (whole entry): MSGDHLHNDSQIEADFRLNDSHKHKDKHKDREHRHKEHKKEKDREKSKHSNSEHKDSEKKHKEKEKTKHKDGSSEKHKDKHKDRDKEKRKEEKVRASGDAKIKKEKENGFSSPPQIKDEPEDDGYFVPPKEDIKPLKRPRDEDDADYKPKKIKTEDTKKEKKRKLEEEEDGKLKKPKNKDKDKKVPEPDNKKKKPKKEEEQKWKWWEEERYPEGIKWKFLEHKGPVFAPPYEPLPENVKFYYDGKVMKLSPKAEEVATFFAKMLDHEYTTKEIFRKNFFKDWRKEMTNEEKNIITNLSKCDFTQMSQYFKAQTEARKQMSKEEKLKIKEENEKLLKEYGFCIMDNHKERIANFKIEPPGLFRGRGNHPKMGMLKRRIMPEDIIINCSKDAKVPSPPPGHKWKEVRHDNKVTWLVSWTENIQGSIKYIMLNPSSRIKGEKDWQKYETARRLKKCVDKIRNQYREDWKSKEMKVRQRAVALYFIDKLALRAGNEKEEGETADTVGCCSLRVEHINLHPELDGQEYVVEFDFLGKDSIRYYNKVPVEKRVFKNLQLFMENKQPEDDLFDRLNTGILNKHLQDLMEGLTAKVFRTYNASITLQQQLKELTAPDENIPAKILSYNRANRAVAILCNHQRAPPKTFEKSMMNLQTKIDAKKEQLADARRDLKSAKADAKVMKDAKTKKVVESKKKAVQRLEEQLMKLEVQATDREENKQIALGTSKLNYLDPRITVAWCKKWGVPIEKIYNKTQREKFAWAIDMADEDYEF

[3] = test system: Human immunodeficiency virus 1; experiment: Antiviral activity against HIV1 3B infected in human CEM cells assessed as drug level required for protection against virus-induced cytopathogenicity after 4 days; type: functional, organism-based; settings: Human immunodeficiency virus 1, 3B, CCRF-CEM, 96 h
[4] = test system: Human immunodeficiency virus 2; experiment: Antiviral activity against HIV2 ROD infected in human CEM cells assessed as drug level required for protection against virus-induced cytopathogenicity after 4 days; type: functional, organism-based; settings: Human immunodeficiency virus 2, ISOLATE ROD, CCRF-CEM, 96 h
[5] = Selectivity index, ratio of IC50 for human CEM cells to EC50 for HIV1 3B; type: toxicity, cell-based, CCRF-CEM; settings: read-out: Ratio IC50/EC50
Human alphaherpesvirus 1 = experiment: Antiviral activity against HSV1 infected in HEL cells at subtoxic concentration; type: functional, organism-based
Human alphaherpesvirus 2 = experiment: Antiviral activity against HSV2 infected in HEL cells at subtoxic concentration; type: functional, organism-based
Vaccinia virus = experiment: Antiviral activity against Vaccinia virus infected in HEL cells at subtoxic concentration; type: functional, organism-based; settings: Orthopoxvirus vaccinia
[6] = test system: Vesicular stomatitis virus; experiment: Antiviral activity against VSV infected in HEL cells at subtoxic concentration; type: functional, organism-based
[7] = test system: Vesicular stomatitis virus; experiment: Antiviral activity against VSV infected in human HeLa cells at subtoxic concentration; type: functional, organism-based
Coxsackievirus B4 [8] = experiment: Antiviral activity against Coxsackievirus B4 infected in human HeLa cells at subtoxic concentration; type: functional, organism-based
[9] = test system: Respiratory syncytial virus; experiment: Antiviral activity against Respiratory syncytial virus infected in human HeLa cells at subtoxic concentration; type: functional, organism-based
Human respirovirus 3 = experiment: Antiviral activity against Parainfluenza virus 3 infected in african green monkey Vero cells at subtoxic concentration; type: functional, organism-based
[10] = test system: Mammalian orthoreovirus 1; experiment: Antiviral activity against Reovirus 1 infected in african green monkey Vero cells at subtoxic concentration; type: functional, organism-based
Sindbis virus = experiment: Antiviral activity against Sindbis virus infected in african green monkey Vero cells at subtoxic concentration; type: functional, organism-based
Coxsackievirus B4 [11] = experiment: Antiviral activity against Coxsackievirus B4 infected in african green monkey Vero cells at subtoxic concentration; type: functional, organism-based
Punta Toro virus = experiment: Antiviral activity against Punta Toro virus infected in african green monkey Vero cells at subtoxic concentration; type: functional, organism-based
Influenza A virus = experiment: Antiviral activity against influenza A virus H1N1:H3N2 infected in […] cells at subtoxic concentration; type: functional, organism-based
Influenza B virus = experiment: Antiviral activity against influenza B virus infected in […] cells at subtoxic concentration; type: functional, organism-based
K562 = experiment: Antiproliferative against human K562 cells after 72 hrs; type: functional, cell-based; settings: K562, 72 h
HCT-116 = experiment: Antiproliferative against human HCT116 cells after 72 hrs; type: functional, cell-based; settings: HCT-116, 72 h
[12] = target: T1, DNA topoisomerase 1 (Homo sapiens); experiment: Inhibition of DNA topoisomerase 1 assessed as partial inhibition of unwinding of supercoiled pBR322 DNA at 20 uM by agarose gel electrophoresis
[13] = target: T1, DNA topoisomerase 1 (Homo sapiens); experiment: Inhibition of DNA topoisomerase 1 assessed as inhibition of unwinding of supercoiled pBR322 DNA at 10 to 20 uM by agarose gel electrophoresis
[14] = target: T1, DNA topoisomerase 1 (Homo sapiens); experiment: Inhibition of DNA topoisomerase 1 assessed as partial inhibition of unwinding of supercoiled pBR322 DNA at 5 uM by agarose gel electrophoresis

SMILES | pIC50 (L1210) | pIC50 [1] | pIC50 (CCRF-CEM) | Activity [2] | pEC50 [3] | pEC50 [4] | selectivity ratio [5] | Activity (Human alphaherpesvirus 1) | Activity (Human alphaherpesvirus 2) | Activity (Vaccinia virus) | Activity [6] | Activity [7] | Activity (Coxsackievirus B4 [8]) | Activity [9] | Activity (Human respirovirus 3) | Activity [10] | Activity (Sindbis virus) | Activity (Coxsackievirus B4 [11]) | Activity (Punta Toro virus) | Activity (Influenza A virus) | further results
CO[C@H](C(=O)[C@@H](O)[C@@H](C)O)[C@@H]1Cc2cc3c(/N=N/c4ccccc4)c(O)cc(O)c3c(O)c2C(=O)[C@H]1O[C@H]1C[C@@H](O[C@H]2C[C@@H](O[C@H]3C[C@](C)(O)[C@@H](OC(=O)C(C)C)[C@H](C)O3)[C@H](O)[C@@H](C)O2)[C@H](O)[C@@H](C)O1 | 5.21 | 5.80 | 5.74 | inactive | 7.22 | ≤ 7.40 | 30 | inactive | inactive | inactive | inactive | inactive | inactive | inactive | inactive | inactive | inactive | inactive | inactive | inactive | Activity (Influenza B virus): inactive
CO[C@H](C(=O)[C@@H](O)[C@@H](C)O)[C@@H]1Cc2cc3c(/N=N/c4ccc(C)cc4)c(O)cc(O)c3c(O)c2C(=O)[C@H]1O[C@H]1C[C@@H](O[C@H]2C[C@@H](O[C@H]3C[C@](C)(O)[C@@H](OC(=O)C(C)C)[C@H](C)O3)[C@H](O)[C@@H](C)O2)[C@H](O)[C@@H](C)O1 | – | – | – | – | – | – | – | – | – | – | – | – | – | – | – | – | – | – | – | – | pIC50 (K562): 5.70; pIC50 (HCT-116): 5.62; Activity [12]: Active
CO[C@H](C(=O)[C@@H](O)[C@@H](C)O)[C@@H]1Cc2cc3c(/N=N/c4ccc(Cl)c(Cl)c4)c(O)cc(O)c3c(O)c2C(=O)[C@H]1O[C@H]1C[C@@H](O[C@H]2C[C@@H](O[C@H]3C[C@](C)(O)[C@@H](OC(=O)C(C)C)[C@H](C)O3)[C@H](O)[C@@H](C)O2)[C@H](O)[C@@H](C)O1 | 5.25 | 5.72 | 5.59 | Active | 6.30 | ≤ 6.10 | 5.2 | inactive | inactive | inactive | inactive | inactive | inactive | inactive | inactive | inactive | inactive | inactive | inactive | inactive | Activity (Influenza B virus): inactive
CO[C@H](C(=O)[C@@H](O)[C@@H](C)O)[C@@H]1Cc2cc3c(/N=N/c4ccc(S(N)(=O)=O)cc4)c(O)cc(O)c3c(O)c2C(=O)[C@H]1O[C@H]1C[C@@H](O[C@H]2C[C@@H](O[C@H]3C[C@](C)(O)[C@@H](OC(=O)C(C)C)[C@H](C)O3)[C@H](O)[C@@H](C)O2)[C@H](O)[C@@H](C)O1 | < 4.00 | < 4.00 | < 4.00 | inactive | 4.30 | < 4.00 | > 2 | inactive | inactive | inactive | inactive | inactive | inactive | inactive | inactive | inactive | inactive | inactive | inactive | inactive | Activity (Influenza B virus): inactive
CO[C@@H]1[C@H](O)C[C@@H](O[C@@H]2C[C@H](Oc3cc(O)c4c(O)c5c(cc4c3)C[C@@H]([C@H](OC)C(=O)[C@@H](O)[C@@H](C)O)[C@H](O[C@H]3C[C@@H](O[C@H]4C[C@@H](O[C@H]6C[C@](C)(O)[C@@H](OC(=O)C(C)C)[C@H](C)O6)[C@H](O)[C@@H](C)O4)[C@H](O)[C@@H](C)O3)C5=O)O[C@H](C)[C@@H]2OC(C)=O)O[C@@H]1C [OLIVOMYCIN I] | 7.47 | 8.40 | 8.60 | – | 8.30 | 8.40 | – | – | – | – | – | – | – | – | – | – | – | – | – | – | pIC50 (K562): 7.36; pIC50 (HCT-116): 7.26; Activity [13]: Active; Activity [14]: Active
COc1ccc(/N=N/c2c(O)cc(O)c3c(O)c4c(cc23)C[C@@H]([C@H](OC)C(=O)[C@@H](O)[C@@H](C)O)[C@H](O[C@H]2C[C@@H](O[C@H]3C[C@@H](O[C@H]5C[C@](C)(O)[C@@H](OC(=O)C(C)C)[C@H](C)O5)[C@H](O)[C@@H](C)O3)[C@H](O)[C@@H](C)O2)C4=O)cc1 | 4.70 | 5.14 | 4.59 | inactive | 6.30 | ≤ 5.40 | 52 | inactive | inactive | inactive | inactive | inactive | inactive | inactive | inactive | inactive | inactive | inactive | inactive | inactive | Activity (Influenza B virus): inactive
CO[C@@H]1[C@H](O)C[C@@H](O[C@@H]2C[C@H](Oc3cc(OC(C)=O)c4c(O)c5c(cc4c3)C[C@@H]([C@H](OC)C(=O)[C@@H](O)[C@@H](C)O)[C@H](O[C@H]3C[C@@H](O[C@H]4C[C@@H](O[C@H]6C[C@](C)(O)[C@@H](OC(=O)C(C)C)[C@H](C)O6)[C@H](O)[C@@H](C)O4)[C@H](O)[C@@H](C)O3)C5=O)O[C@H](C)[C@@H]2OC(C)=O)O[C@@H]1C | 8.10 | 7.66 | 8.62 | – | – | – | – | – | – | – | – | – | – | – | – | – | – | – | – | – | –
